What all share (test): inhibition of tumour cell growth, NCI panel, 48 h
Assay [1] concerns NCI-H522 lung.
Assay [2] deals with SNB-19 CNS.
Assay [3] relates to MDA-MB-231 breast.
Assay [4] relates to OVCAR-8 ovarian.
In assay [5] the test system is SK-MEL-2 melanoma.
Assay [6] relates to HCC-2998 colon.
Assay [7] concerns MALME-3M melanoma.
In assay [8] the test system is CAKI-1 renal.
The test system of assay [9] is ACHN renal.
Assay [10] has as its system NCI-H460 lung.
Assay [11] has as its system UACC-257 melanoma.
In assay [12] the test system is SW-620 colon.
In assay [13] the test system is MDA-N.
The test system of assay [14] is K-562 leukemia.
In assay [15] the test system is A549 NSCLC.
Assay [16] concerns LOX IMVI melanoma.
Assay [17] deals with HS 578T breast.
Assay [18] deals with PC-3 prostate.
The test system of assay [19] is HL-60(TB) leukemia.
In assay [20] the test system is CCRF-CEM leukemia.

This is an account of results in PubChem BioAssay (NCI).

The structures appear in SMILES notation.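 Tested at 5 concentrations; 48 h exposure; 96-well plates; endpoints linearly interpolated, else capped at highest concentration. TGI marks complete inhibition of growth.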 Where a SMILES comes first, the peptide text is derived from it. [ ]: non-standard residue; d: D form. Hiv = CC(C)[C@H](O)C(=O)O

Take `NS(=O)(=O)c1nnc(NS(=O)(=O)c2ccc(Cl)cc2)s1`: the TGI in assay [1], in [2], in assay [3], in assay [4], in [5] and in assay [6] was above 100 µM each time. Besides, the TGI in assay [7], in assay [8], in [9], in [10], in [11] and in [12] was above 100 µM in each case. Further, the TGI in assay [13], in [14], in assay [15], in assay [16] and in assay [17] was above 100 µM throughout.

In the case of `O=C1OCCC[C@H]2O[C@@H](COCc3ccccc3)C[C@@H]12`, the TGI in assay [2], in [3], in [4], in [18], in [5] and in assay [8] was above 100 µM throughout. The TGI in assay [9], in assay [10], in [19], in [11], in [12] and in assay [13] was above 100 µM in each case. The TGI in [14], in assay [15], in [20] and in [17] was above 100 µM in each case.

As to `O=C(O)c1nc2ccccc2nc1NCc1ccc(F)cc1`, the TGI in assay [1], in [2], in [3], in [4], in [18] and in assay [5] was above 100 µM throughout. For the same compound, the TGI in assay [6], in [8], in [10], in [19], in [11] and in assay [12] was above 100 µM in each case. In addition, the TGI in assay [13], in [14], in [15], in assay [20], in [16] and in assay [17] was above 100 µM throughout.

Turning to `Clc1ccc(-c2nc3ccc4ccccc4c3c3c2CCCC3)cc1`, the TGI in assay [1], in [2], in [3], in assay [4], in [5] and in [6] was above 100 µM each time. Besides, the TGI in assay [7], in [8], in assay [10], in assay [11], in assay [12] and in [13] was above 100 µM each time. The TGI in assay [14], in assay [15], in [20] and in assay [17] was above 100 µM each time.

On to `Cc1ccc(/C=C2\NC(=S)N(CN3CCCCC3)C2=O)cc1`, for which the TGI in assay [1], in assay [2], in assay [3], in assay [4], in [18] and in [5] was above 100 µM throughout. For the same compound, the TGI in assay [7], in assay [9], in assay [12], in assay [13], in assay [14] and in assay [15] was above 100 µM in each case. The TGI was 86.7 µM in assay [20], above 100 µM in assay [16] and above 100 µM in assay [17].

For `CC(C)[C@@H]1OC(=O)[C@@H](C)NC(=O)[C@@H]2CCCN2C1=O` (cyclo([Hiv]-Pro-[dA])), the TGI in assay [2], in assay [3], in [4], in [18], in assay [5] and in assay [6] was above 100 µM each time. Further, the TGI in [7], in [8], in assay [9], in assay [10], in [19] and in assay [11] was above 100 µM in each case. The TGI in [12], in assay [13], in assay [15], in [20], in [16] and in assay [17] was above 100 µM each time.

Consider `Cc1cccc(C)c1N1C(=O)C2c3[nH]c4ccccc4c3C3CCC(C(C)(C)C)CC3C2C1=O` (configuration not stated), for which the TGI in assay [2] is above 100 µM; in [3], 24.4 µM; in assay [4], 37 µM; in [18], 20.6 µM; in assay [5], 33.7 µM; in [6], 14.9 µM. Besides, the TGI in assay [7] was found to be 28.2 µM; in assay [8], 26.8 µM; in assay [9] it was 33.7 µM; in [19], 35.5 µM; in assay [11], 37.5 µM; in assay [12] it was 21 µM. Moreover, the TGI in [13] was 24.4 µM; in assay [14] it was 32.7 µM; in assay [15], above 100 µM; in assay [20] it was 45.1 µM; in assay [16], 23.6 µM; in assay [17], 44 µM.

Consider `N#CCC1(c2ccc(Cl)cc2)NC(=O)c2ccccc21` (configuration not stated), for which the TGI in assay [1], in assay [2], in assay [3], in [4], in assay [18] and in assay [5] was above 100 µM in each case. For the same compound, the TGI in assay [7], in assay [8], in assay [9], in assay [10], in assay [19] and in assay [11] was above 100 µM each time. Besides, the TGI in assay [12], in assay [13], in [14], in assay [15], in assay [20] and in [16] was above 100 µM throughout. For the same compound, the TGI in [17] is above 100 µM.
